# Results: patent publication US6358885B1, “Substituted phenylheterocyclic herbicides” (Mississippi State University, priority 1992, dated 2002)
# Key:
# cocklebur = experiment: Test B preemergence/postemergence greenhouse plant response rating 0 to 10; assay type: in vivo, Xanthium pensylvanicum; details: 0 to 10 scale
# In short: (§1)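 Planted seeds are treated preemergence with compound dissolved in a non-phytotoxic solvent, while postemergence applications go onto plants of two to eighteen cm. Plants stay in the greenhouse twelve to sixteen days and are then rated visually relative to controls.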
# blackgrass [1] = experiment: Test C preemergence/postemergence greenhouse plant response rating 0 to 100; assay type: in vivo, Alopecurus myosuroides; details: POSTEMERGENCE
# Source text: (§2) The compounds evaluated in this test were formulated in a non-phytoxic solvent and applied to the soil surface before plant seedlings emerged (preemergence application), to water that covered the soil surface (flood application), and to plants that were in the one-to-four leaf stage (postemergence application). A sandy loam soil was used for the preemergence and postemergence tests, while a silt loam soil was used in the flood test. Water depth was approximately 2.5 cm for the flood test and was maintained at this level for the duration of the test. Plant species in the preemergence and postemergence tests consisted of barley (Hordeum vulgare), bedstraw (Galium aparine), blackgrass (Alopecurus myosuroides), chickweed (Stellaria media), corn (Zea mays), cotton (Gossypium hirsutum), crabgrass (Digitaria sanguinalis), downy brome (Bromus tectorum), giant foxtail (Setaria faberii), lambsquarters (Chenopodium album), morningglory (Ipomoea hederacea), pigweed ([…]), rape (Brassica napus), ryegrass (Lolium multiflorum), sorghum (Sorghum bicolor), soybean (Glycine max), speedwell (Veronica persica), sugar beet (Beta vulgaris), velvetleaf (Abutilon theophrasti), wheat (Triticum aestivum), wild buckwheat (Polygonum convolvulus), and wild oat (Avena fatua). All plant species were planted one day before application of the compound for the preemergence portion-of this test. Plantings of these species were adjusted to produce plants of appropriate size for the post-emergence portion of the test. […] All plant species were grown using normal greenhouse practices. Visual evaluations of injury expressed on treated plants, when compared to untreated controls, were recorded approximately fourteen to twenty one days after application of the test compound. […] A dash (-) response means no test result.
# sugar beet = experiment: Test B preemergence/postemergence greenhouse plant response rating 0 to 10; assay type: in vivo, Beta vulgaris; details: 0 to 10 scale
# In short: as §1
# cotton = experiment: Test C preemergence/postemergence greenhouse plant response rating 0 to 100; assay type: in vivo, Gossypium hirsutum; details: POSTEMERGENCE
# Source text: as §2
# pigweed = experiment: as above; assay type: in vivo, Amaranthusretroflexus; details: POSTEMERGENCE
# Source text: as §2
# blackgrass [2] = experiment: Test B preemergence/postemergence greenhouse plant response rating 0 to 10; assay type: in vivo, Alopecurus myosuroides; details: 0 to 10 scale
# In short: as §1
# wild oat = experiment: as above; assay type: in vivo, Avena fatua; details: 0 to 10 scale
# In short: as §1
# bedstraw = experiment: as above; assay type: in vivo, Galium aparine; details: 0 to 10 scale
# In short: as §1
# wheat = experiment: Test C preemergence/postemergence greenhouse plant response rating 0 to 100; assay type: in vivo, Triticum aestivum; details: POSTEMERGENCE
# Source text: as §2
# ryegrass = experiment: as above; assay type: in vivo, Lolium multiflorum; details: POSTEMERGENCE
# Source text: as §2
# morningglory = experiment: Test B preemergence/postemergence greenhouse plant response rating 0 to 10; assay type: in vivo, Ipomoea hederacea; details: 0 to 10 scale
# In short: as §1
structure (smiles),measurement,setting,value
C#CCN1C(=O)COc2cc(F)c(-c3nn4c(c3Br)CCCC4)cc21 [Compound 56],"Plant response rating, Cocklebur","cocklebur; POSTEMERGENCE, Rate 10 g/ha",10
same,"Plant response rating, Cocklebur","cocklebur; POSTEMERGENCE, Rate 50 g/ha",10
same,"Plant response rating, Cocklebur","cocklebur; PREEMERGENCE, Rate 10 g/ha",2
same,"Plant response rating, Cocklebur","cocklebur; PREEMERGENCE, Rate 50 g/ha",2
same,"Plant response rating, Blackgrass","blackgrass [1]; 62 g/ha, 0 to 100 scale",80
same,"Plant response rating (0 to 100), Blackgrass",blackgrass [1]; Rate 1 g/ha,30
same,"Plant response rating (0 to 100), Blackgrass",blackgrass [1]; Rate 4 g/ha,40
same,"Plant response rating (0 to 100), Blackgrass",blackgrass [1]; Rate 16 g/ha,65
same,"Plant response rating, Sugar beet","sugar beet; POSTEMERGENCE, Rate 10 g/ha",10
same,"Plant response rating, Sugar beet","sugar beet; POSTEMERGENCE, Rate 50 g/ha",10
same,"Plant response rating, Sugar beet","sugar beet; PREEMERGENCE, Rate 50 g/ha",9
same,"Plant response rating, Cotton","cotton; 62 g/ha, 0 to 100 scale",100
same,"Plant response rating (0 to 100), Cotton",cotton; Rate 1 g/ha,100
same,"Plant response rating (0 to 100), Cotton",cotton; Rate 4 g/ha,100
same,"Plant response rating (0 to 100), Cotton",cotton; Rate 16 g/ha,100
same,Plant response rating Pigweed,"pigweed; 62 g/ha, 0 to 100 scale",100
same,"Plant response rating (0 to 100), Pigweed",pigweed; Rate 1 g/ha,100
same,"Plant response rating (0 to 100), Pigweed",pigweed; Rate 4 g/ha,100
same,"Plant response rating (0 to 100), Pigweed",pigweed; Rate 16 g/ha,100
same,"Plant response rating, Blackgrass","blackgrass [2]; POSTEMERGENCE, Rate 10 g/ha",6
same,"Plant response rating, Blackgrass","blackgrass [2]; POSTEMERGENCE, Rate 50 g/ha",7
same,"Plant response rating, Blackgrass","blackgrass [2]; PREEMERGENCE, Rate 10 g/ha",3
same,"Plant response rating, Blackgrass","blackgrass [2]; PREEMERGENCE, Rate 50 g/ha",6
same,"Plant response rating, Wild oat","wild oat; POSTEMERGENCE, Rate 10 g/ha",6
same,"Plant response rating, Wild oat","wild oat; POSTEMERGENCE, Rate 50 g/ha",6
same,"Plant response rating, Wild oat","wild oat; PREEMERGENCE, Rate 50 g/ha",5
same,"Plant response rating, Bedstraw","bedstraw; POSTEMERGENCE, Rate 10 g/ha",8
same,"Plant response rating, Bedstraw","bedstraw; POSTEMERGENCE, Rate 50 g/ha",10
same,"Plant response rating, Bedstraw","bedstraw; PREEMERGENCE, Rate 10 g/ha",4
same,"Plant response rating, Bedstraw","bedstraw; PREEMERGENCE, Rate 50 g/ha",9
same,"Plant response rating, Wheat","wheat; 62 g/ha, 0 to 100 scale",60
same,"Plant response rating (0 to 100), Wheat",wheat; Rate 1 g/ha,30
same,"Plant response rating (0 to 100), Wheat",wheat; Rate 4 g/ha,50
same,"Plant response rating (0 to 100), Wheat",wheat; Rate 16 g/ha,60
same,Plant response rating Ryegrass,"ryegrass; 62 g/ha, 0 to 100 scale",50
same,"Plant response rating (0 to 100), Ryegrass",ryegrass; Rate 1 g/ha,20
same,"Plant response rating (0 to 100), Ryegrass",ryegrass; Rate 4 g/ha,40
same,"Plant response rating (0 to 100), Ryegrass",ryegrass; Rate 16 g/ha,40
same,"Plant response rating, Morningglory","morningglory; POSTEMERGENCE, Rate 10 g/ha",10
same,"Plant response rating, Morningglory","morningglory; POSTEMERGENCE, Rate 50 g/ha",9
same,"Plant response rating, Morningglory","morningglory; PREEMERGENCE, Rate 50 g/ha",6
